Assay results: US20250034169A1, “NOVEL PYRIMIDOPYRIDINE COMPOUND, PHARMACEUTICAL COMPOSITION THEREOF, AND USE THEREOF” (SUNSHINE LAKE PHARMA CO., LTD., priority 2021, published 2025)
Where two headings read alike, the source gives them in different places.

Tests used:
in vivo = assay: in vivo; parameters: species or system BALB/c mice; details: BALB/c, mouse, 2 mg/kg
Method: The inventors performed a pharmacokinetic evaluation of the compounds of the present invention in mice.
The compound of the present invention was in the form of a solution of 5% DMSO+30% PEG400+65% Saline, 10% DMSO+10% Kolliphor HS15+80% Saline, 10% DMSO+89%(25% SBE-B-CD)+(2% HCl), 20% PEG400+80% sterilize water for injection or 10% DMA+10% HS15+30% PEG400+50% sterilize water for injection, the test animals were administered, and the animals were fasted for 12 h before administration, and water was free to drink. The test animals were administered intravenously at a dose of 2 mg/kg, blood (approximately 0.15 mL) was taken intravenously at the following time points after administration: 0.083 h, 0.25 h, 0.5 h, 1.0 h, 2.0 h, 5.0 h, 7.0 h, and 24 h, EDTA-K2 was pre-added as an anticoagulant in the blood collection tube, the blood samples were centrifuged at 12,000 rpm for 2 min, then plasma was collected and stored at −20° C. or −70° C.
The plasma samples collected above were treated (after the frozen plasma thawed at room temperature, vortexed for 15 s for mixing, 10-20 μL of plasma was taken and added with 120-150 μL of acetonitrile solution containing internal standard, the mixture was vortexed for 5 min for mixing, then centrifuged at 4,000 rpm for 5 min, 100 μL of supernatant was taken, and 120-150 μL of methanol/water (v/v=1/1) was added to mix), and the compound concentration in plasma was analyzed by LC-MS/MS. The pharmacokinetic parameters of the compounds of the present invention for intravenous administration in mice are shown in Table 5.

[1] = Stability in mouse liver microsomes; assay type: in vitro ADME; details: 1 μM; for CLHep / CLin vivo / ER: mouse liver microsomes; for ER: slow ER < 0.3, moderate 0.3 < ER < 0.7, fast ER > 0.7; for microsomal CLint at 1 μM / half-life at 1 μM: pH 7.4, mouse liver microsomes 0.5 mg/mL, 37° C.; for microsomal CLint at 1 μM: read-out: CLint; for half-life at 1 μM: read-out: T1/2
Method: (§1) Objective: To evaluate the stability of the compounds of the present invention in human and mouse liver microsomes by LC-MS/MS.
(§2) The ratio of the sample peak area to the internal standard peak area was obtained by LC/MS/MS, and the content of the compounds at 0 min was regarded as 100%, and the relative content of the compounds at each time point was calculated. The half-life of the compound was calculated by plotting the “relative content of the compound” against the “incubation time”, and the intrinsic clearance was calculated, in which the half-life and intrinsic clearance of the compound in human and mouse liver microsomes were determined in Table 3 and Table 4, respectively.

intracellular pERK = assay: Inhibitory effect on intracellular pERK, In-Cell Western, AGS cells; assay type: cell-based; details: Homo sapiens, read-out: Inhibitory effect on intracellular pERK, IC50
[2] = Stability in human liver microsomes; assay type: in vitro ADME; details: 1 μM; for CLHep / predicted in vivo clearance / ER: human liver microsomes; for ER: slow ER < 0.3, moderate 0.3 < ER < 0.7, fast ER > 0.7; for microsomal CLint at 1 μM / half-life at 1 μM: pH 7.4, human liver microsomes 0.5 mg/mL, 37° C.; for microsomal CLint at 1 μM: read-out: CLint; for half-life at 1 μM: read-out: T1/2
Method: as §1, §2

KRAS G12D-GTP & SOS1 = KRAS G12D-GTP & SOS1 (Homo sapiens (Human), UniProt P01116, G12D); assay: KRAS G12D/SOS1 binding experiment (HTRF); details: competitive binding
KRAS G12D-GTP & cRAF = KRAS G12D-GTP & cRAF (Homo sapiens (Human), UniProt P01116, G12D); assay: KRAS G12D/cRAF binding experiment (HTRF); details: competitive binding
KRAS G12D-GTP & cRAF, sequence (P01116-2 other isoform, or with tags, fused parts or gaps G12D): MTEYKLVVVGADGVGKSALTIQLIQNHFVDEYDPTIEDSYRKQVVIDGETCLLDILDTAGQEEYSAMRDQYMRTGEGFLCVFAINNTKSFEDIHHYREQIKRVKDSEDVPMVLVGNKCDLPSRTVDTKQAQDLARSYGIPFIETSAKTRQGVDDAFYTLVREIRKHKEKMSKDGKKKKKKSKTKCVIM

KRAS G12D-GTP & SOS1, sequence (P01116-2 other isoform, or with tags, fused parts or gaps G12D): as above

| SMILES | CLHep [1] | CLin vivo [1] | ER [1] | microsomal CLint at 1 μM [1] | half-life at 1 μM [1] | CLHep [2] | predicted in vivo clearance [2] | ER [2] | microsomal CLint at 1 μM [2] | half-life at 1 μM [2] | other results |
| --- | --- | --- | --- | --- | --- | --- | --- | --- | --- | --- | --- |
| C#Cc1c(F)ccc2cc(O)cc(-c3nc(C#C)c4c(N5CC6CCC(C5)N6)nc(OC[C@@]56CCCN5C[C@H](F)C6)nc4c3F)c12 [Compound 23] | 11.24 L/h/kg | 3.65 L/h/kg | 0.68 | 47.6 µL/min/mg | 29.1 min | 1.38 L/h/kg | 0.654 L/h/kg | 0.53 | 18.4 µL/min/mg | 75.3 min | AUC(0-inf) (in vivo; mice, intravenous, read-out: AUCINF): 2.16 µg·h/mL; AUC(0-t) (in vivo; mice, intravenous, read-out: AUClast): 2.14 µg·h/mL; clearance (in vivo; mice, intravenous, read-out: Cl): 0.96 L/h/kg; Cmax (in vivo; mice, intravenous, read-out: Cmax): 3.55 µg/mL; MRT last (in vivo; mice, intravenous, read-out: MRTlast): 42 min; half-life (in vivo; mice, intravenous, read-out: T1/2 (converted)): 50.4 min; Tmax (in vivo; mice, intravenous, read-out: Tmax): 4.98 min; Vd (in vivo; mice, intravenous, read-out: Vss): 0.69 L/kg; IC50 (intracellular pERK; AGS, 3 h): 0.6 nM |
| C#Cc1nc(-c2cc(O)cc3cccc(Cl)c23)c(F)c2nc(OC[C@@]34CCCN3C[C@H](F)C4)nc(N3CC4CCC(C3)N4)c12 [Compound 67] | 10.71 L/h/kg | 3.59 L/h/kg | 0.66 | 45.3 µL/min/mg | 30.6 min | 0.87 L/h/kg | 0.51 L/h/kg | 0.41 | 11.6 µL/min/mg | 119 min | AUC(0-inf) (in vivo; iv): 3.23 µg·h/mL; AUC(0-t) (in vivo; iv): 3.21 µg·h/mL; Cmax (in vivo; iv): 4.3 µg/mL; MRT last (in vivo; iv): 45 min; Tmax (in vivo; iv): 4.98 min; Vd (in vivo; iv): 0.5 L/kg; clearance (in vivo; iv): 0.6 L/h/kg; half-life (in vivo; iv): 52.2 min; IC50 (KRAS G12D-GTP & SOS1): 13.5 nM; IC50 (KRAS G12D-GTP & cRAF): 5.4 nM; IC50 (intracellular pERK; AGS cells, 3 h incubation, In-Cell Western): 0.4 nM |
